The values below come from ChEMBL document CHEMBL3507680, “University of Dundee, Gates Library screen for HepG2 cell viability”.

The nature of the series: Human HepG2 cell viability assay in 384 well format. Format: toxicity, cell-based. On the set-up: dose 125 nL, time 70.5 hour; concentration not given beside the values. The following applies: HepG2 cells, read-out: Inhibition.

For the compound `Cc1c[nH]c(C2COCCN2S(=O)(=O)c2cn[nH]c2)n1` (configuration not stated), the cytotoxicity at 70.5 h was -12.8%.
Under `CS(=O)(=O)N1CCCC1Cn1cccn1` (configuration not stated) stands 2.44%.
As to `CC1(C(=O)NC2CCCC2)CCCN(c2cnccn2)C1` (configuration not stated), the cytotoxicity at 70.5 h was -6.96%.
Under `CN(C)c1nccc(C2CCCN2S(=O)(=O)c2cn(C)cn2)n1` (configuration not stated) stands -15.2%; under `O=C1CO[C@H]2CN(Cc3cccc4[nH]ccc34)C[C@@H]2N1C1CCOCC1`, 5.48%.
With `Cc1ccc(Nc2nccc(C3CN(C(C)C)C3)n2)nc1` the figure was 42.5%; with `O=C(Nc1ccccn1)C1CCN(C(=O)COc2ccccc2F)C1` (configuration not stated), 18.6%; with `CN1CCNC(Cc2ccc(-c3ccccc3)cc2)C1=O` (configuration not stated), 21.5%.
Regarding `CNc1cc(C2CCCN2S(=O)(=O)c2cccc(F)c2)ccn1` (configuration not stated), the cytotoxicity at 70.5 h amounted to 14.1%.
`Cn1nccc1C(=O)N1CCCC1c1[nH]ncc1C(N)=O` (configuration not stated): the cytotoxicity at 70.5 h is -6.47%.
On to `Cc1sc2c(C3CCCN(S(C)(=O)=O)C3)nc(C)n2c1C` (configuration not stated), for which the cytotoxicity at 70.5 h is -9.83%.
With `Fc1ccc(N2CCOC(Cc3cccnc3)C2)cc1` (configuration not stated) the figure was -9.3%; with `Cc1cc(CCC(=O)O)nc(C2CCCN2c2ccnc(C)n2)n1` (configuration not stated), -6.16%; with `Cc1cc(N2CCC(c3n[nH]c4nccnc34)CC2)ncn1`, 19%.
Under `COCCN1CCCC(Cc2ccc(N3CCOCC3)nn2)C1` (configuration not stated) stands -7.53%; under `Cn1cc(C(=O)N2CCCC2c2[nH]ncc2C(N)=O)cn1` (configuration not stated), -5.5%; under `COCCn1cnnc1C1CCCN(c2cnccn2)C1` (configuration not stated), -5.97%.
With `Cc1ccnn1CCC(=O)N1CCC(c2cnccn2)CC1` the figure was -7.09%.
Turning to `CCN(Cc1ccncc1)CC1(O)CCN(C(=O)c2cccc(C)n2)C1` (configuration not stated), the cytotoxicity at 70.5 h was -4.96%.
In the case of `CNc1cncc(C2CCCN2S(=O)(=O)c2ccc(F)cc2)n1` (configuration not stated), the cytotoxicity at 70.5 h is -2.18%.
With `Cc1cc(C)nc(C2CCN(C(=O)c3cnc(N(C)C)nc3)C2)n1` (configuration not stated) the figure was -4.6%; with `Cn1c(CN2CCOC(CCc3ccncn3)C2)nc2ccccc21` (configuration not stated), -3.77%; with `Cc1ccc([C@@]2(O)CC[C@@H]3CN(S(=O)(=O)c4cn(C)nc4C)C[C@@H]32)cc1`, -2.34%.
Under `Cc1noc(C)c1-c1nc(N(C)CCN(C)C)ncc1-c1cnccn1` stands -6.02%; under `CN1CCNC(Cc2ccc(-c3cccs3)cc2)C1=O` (configuration not stated), -6.3%.
In the case of `CC(=O)N1CCC(Cc2cnc(-c3c(C)n[nH]c3C)cn2)CC1`, the cytotoxicity at 70.5 h is 18.9%.
With `CNC(=O)c1cn[nH]c1C1CCCN1C(=O)c1cccnc1` (configuration not stated) the figure was -4.17%.
As to `c1ccc(CO[C@H]2C[C@@H]3CN(Cc4cncnc4)C[C@@H]3C2)cc1`, the cytotoxicity at 70.5 h is -5.58%.
In the case of `Cc1cc(C(N)=O)nc(C2(C)CCCN2Cc2cnn(C)c2)n1` (configuration not stated), the cytotoxicity at 70.5 h was -4.52%.
With `Cc1nc(CN2CCCC(c3nc(C)n4c(C)c(C)sc34)C2)co1` (configuration not stated) the figure was 21%; with `COCCc1ncc(CNC2(c3ccc(Cl)cc3Cl)CC2)cn1`, -1.55%.
`Cc1nc(C)c(C(=O)N2CCCC(c3cnccn3)C2)s1` (configuration not stated): the cytotoxicity at 70.5 h is -2.44%.
On to `CC(C)CC(=O)N1CCC(c2nnc3n2CCCCC3)CC1`, for which the cytotoxicity at 70.5 h is -0.981%.
Consider `Cc1ccc(CN(C)C(=O)NCC(C)(C)S(C)(=O)=O)s1`, for which the cytotoxicity at 70.5 h was -2.7%.
Under `CC(C)c1ncc2c(n1)CN(CC1CCCCO1)CC2` (configuration not stated) stands -2.55%; under `Cc1cccc(C(=O)N(CCCO)S(=O)(=O)c2cccs2)c1`, -0.969%.
Under `CCC1CCCCN1S(=O)(=O)c1c(C)noc1C` (configuration not stated) stands -7.69%; under `Cc1ccnc(NC(=O)C2CCCO2)c1` (configuration not stated), 6.19%.
Under `CCNC(=O)CN(CC)C(=O)c1cccc(Nc2cnn(C)c2)c1` stands 6.01%.
For `COC1CCN(C(=O)c2ccc3ncsc3c2)CC1`, the cytotoxicity at 70.5 h is -2.33%.
With `CCn1cnnc1CNC(=O)NC(c1ccc(OC)cc1)C1CC1` (configuration not stated) the figure was -6.45%.
As to `CCC(NC(=O)NCc1nncn1CC)c1ccc(OC)cc1` (configuration not stated), the cytotoxicity at 70.5 h was -9.27%.
With `O=c1cc(CN(CCO)C2CC2)nc2ccc(Br)cn12` the figure was -4.99%; with `CN(CCO)Cc1cc(=O)n2cc(Br)ccc2n1`, -1.02%; with `CCN(Cc1cc(=O)n2cc(Br)ccc2n1)C1CC1`, -7.36%.
With `O=C(Cc1cccs1)NCCNc1nccc(C(F)(F)F)n1` the figure was -3.67%; with `CCCS(=O)(=O)N1CCCC(c2nc(-c3ccccc3)c[nH]2)C1` (configuration not stated), -2.79%; with `CC(C)(C)C(=O)NCCC(=O)Nc1cc(C#N)cn1C(C)(C)C`, -4.11%.
Under `O=C(O)c1ccc(-c2cscn2)cc1` stands -6.68%.
As for `CC(C)COc1cncc(NCc2nnc3ccccn23)n1`, the cytotoxicity at 70.5 h is -3.83%.
Under `CC(C)(C)n1cc(C#N)cc1NC(=O)CCS(=O)(=O)C1CCCC1` stands 0.563%.
As to `CCSCc1ccnc(NC(=O)C2CCOC2)c1` (configuration not stated), the cytotoxicity at 70.5 h is -4%.
With `COc1ccncc1NCc1ccsc1` the figure was -2.45%; with `CC(Cc1cccc(Cl)c1)NC(=O)NCc1ncnn1C` (configuration not stated), 11.1%; with `CN(C)C(=O)CCC[S+]([O-])Cc1cc(Cl)ccc1Cl` (configuration not stated), -3.61%.
Under `CN(C)C(=O)CCC[S+]([O-])Cc1ccc(Cl)c(Cl)c1` (configuration not stated) stands -3.04%; under `CN(C)C(=O)CCC[S+]([O-])Cc1ccc(F)c(F)c1` (configuration not stated), 13.1%; under `COc1cc(CNc2nc(C(F)(F)F)no2)cc(OC)c1OC`, -4.05%.
Under `O=S(=O)(c1ccc(Cl)s1)N1CCCC(c2ncc[nH]2)C1` (configuration not stated) stands -1.59%.
As to `CCc1ccc(S(=O)(=O)N2CCCC(c3ncc[nH]3)C2)s1` (configuration not stated), the cytotoxicity at 70.5 h was -4.54%.
Under `COc1cc(CO)ccc1OCc1nc(C(C)C)no1` stands -3.56%.
Under `CCSCc1ccnc(NC(=O)C2CCCO2)c1` (configuration not stated) stands -2.71%.
As to `COC(=O)NCC(=O)N1CCCC1c1nc(-c2ccccc2F)c[nH]1` (configuration not stated), the cytotoxicity at 70.5 h was -3.18%.
Consider `Cc1ccccc1C(C)NC(=O)CN1CCN(Cc2ccc(Br)s2)CC1` (configuration not stated), for which the cytotoxicity at 70.5 h turned out to be 18.7%.
Turning to `NC(=O)CS(=O)(=O)Cc1ccc(F)cc1`, the cytotoxicity at 70.5 h was -1.66%.
Under `O=C(CCC1CCCC1)NCc1nnc2ccccn12` stands -10.1%; under `O=C1CC(N(C(=O)Cc2csc(-c3ccccc3)n2)C2CC2)C(=O)N1` (configuration not stated), -1.89%.
On to `COC(=O)c1cccc(S(=O)(=O)Nc2ncc(C)s2)c1`, for which the cytotoxicity at 70.5 h stood at 0.827%.
Consider `N#CCCN(CCC#N)C(=O)COC1CCCCC1`, for which the cytotoxicity at 70.5 h was -6.88%.
For the compound `Cc1nc2cc(=O)[nH]n2c(C)c1CNC(=O)C(C)(C)c1ccccc1`, the cytotoxicity at 70.5 h was -1.88%.
Under `Cc1ccc(CC(=O)NCC(O)c2ccc(Cl)cc2Cl)cn1` (configuration not stated) stands 3.42%; under `O=C(CCC1CCCC1)N1CCC(O)(C(F)(F)F)C1` (configuration not stated), -0.869%; under `CSCC(C)C(=O)NCc1c(C)nc2cc(=O)[nH]n2c1C` (configuration not stated), 7.35%.
In the case of `CC(C)Cn1cnc(S(=O)(=O)Nc2cccnc2-n2cccn2)c1`, the cytotoxicity at 70.5 h is -1.98%.
In the case of `O=C(NC(c1ccc(Cl)cc1)C(F)(F)F)c1nc(=O)[nH][nH]1` (configuration not stated), the cytotoxicity at 70.5 h amounted to 29.9%.
Turning to `Cn1c(N)nnc1SC1CCCN(c2ccccc2)C1=O` (configuration not stated), the cytotoxicity at 70.5 h was -1%.
With `CCN(C(=O)Cc1ccc(NCc2ncc[nH]2)cc1)c1ccccc1` the figure was -5.61%.
Under `O=C(NC(CC(F)(F)F)c1ccc(Cl)cc1)c1nc(=O)[nH][nH]1` (configuration not stated) stands 0.759%; under `CCn1cc(S(=O)(=O)Nc2cccnc2-n2cccn2)nc1C`, -2.93%.
Under `COCC(O)CN1CCC(NC(=O)c2cccc(C)c2)CC1` (configuration not stated) stands -2.52%; under `COc1cc(F)cc(CNC(=O)Nc2ccn(CC(F)F)n2)c1`, -2.34%.
For the compound `CCOc1ccc(NC(=O)c2oc(CC)cc2C)cc1CO`, the cytotoxicity at 70.5 h was -3.11%.
Turning to `c1csc(-c2noc(CCCNC3CCc4ncnn4C3)n2)c1` (configuration not stated), the cytotoxicity at 70.5 h is -4.28%.
On to `COC(=O)c1cccc(C(=O)N(C)Cc2cccc(F)c2)c1`, for which the cytotoxicity at 70.5 h came out at 5.14%.
Turning to `Cc1ncc(C(=O)NCCNc2ncccn2)s1`, the cytotoxicity at 70.5 h is -2.18%.
Under `Cc1cc(N(C)C)nc(N2CCCC2c2cc(C)on2)n1` (configuration not stated) stands -1.73%.
As for `COc1cccc(SCCCn2cnc3c(N)ncnc32)c1`, the cytotoxicity at 70.5 h was found to be 6.56%.
With `Cc1nc(CN2CCN(c3ccc(Cl)cn3)CC2)no1` the figure was -6.61%.
With `CN(C)CC1CCCCN1C(=O)c1ccc(N2CCOCC2)cc1` (configuration not stated) the figure was 0.118%.
Under `CCCN(Cc1cnn(C)c1)S(=O)(=O)c1cccc(F)c1C#N` stands -2.96%; under `CCOc1cccc(NC(=O)c2cc[nH]n2)n1`, -3.18%.
Consider `CCOc1cccc(NC(=O)c2cnc(C)cn2)n1`, for which the cytotoxicity at 70.5 h was -3.9%.
As for `CNC(=O)CN1CCC(CN(C)Cc2ccncc2Cl)CC1`, the cytotoxicity at 70.5 h was -3.24%.
For `Cc1ccc(S(N)(=O)=O)cc1C(=O)NC1CCN(C2CC2)CC1`, the cytotoxicity at 70.5 h came out at 21.9%.
Turning to `O=c1[nH]cnc2c1CCN(S(=O)(=O)c1cccc(OC(F)(F)F)c1)C2`, the cytotoxicity at 70.5 h was -5.76%.
With `CC(=O)c1cc(Br)cc(F)c1OCC(=O)NC1CC1` the figure was 0.481%; with `CCC1CCCCCN1C(=O)c1ccc(N2CCC(O)CC2)cc1` (configuration not stated), -1.83%; with `Cc1cc(C)nc(NC2CCC(=O)N(C)C2)n1` (configuration not stated), -8.23%.
Under `COCc1cc(N(C)Cc2ncnn2C)nc(C(C)(C)C)n1` stands -10.6%; under `O=S(=O)(N1CCCC1)N1C[C@@H](c2cccc(F)c2)[C@@H]2NCCCCC[C@H]21`, -6.83%; under `COc1ccc2ccccc2c1CNCC1CCS(=O)(=O)C1` (configuration not stated), -8.26%.
Under `O=C(CN1CCCCC1)N1CCC(c2cc(=O)n3c(n2)CCCCC3)C1` (configuration not stated) stands -1.74%.
